Measurements reported in ChEMBL document CHEMBL1770059, “Identification of chemicals to inhibit the kinase activity of leucine-rich repeat kinase 2 (LRRK2), a Parkinson's disease-associated protein” (Bioorg Med Chem Lett, 2011).
Values belong to the compound of their own block, whether it stands above or below them. Calls of active or inactive are those of the source. The rule behind the calls is not given here.

Key:
[1] = test system: Leucine-rich repeat serine/threonine-protein kinase 2 (Homo sapiens), Q5S007 [G2019S]; test: Inhibition of purified N-terminal GST-tagged LRRK2 G2019S mutant autophosphorylation activity using myelin basic protein as substrate at 25 uM
[2] = molecular target: Leucine-rich repeat serine/threonine-protein kinase 2 (Homo sapiens, UniProt Q5S007, G2019S); test: Inhibition of purified N-terminal GST-tagged LRRK2 G2019S mutant autophosphorylation activity using [gamma32-P]ATP
[3] = molecular target: Dual specificity tyrosine-phosphorylation-regulated kinase 1A (Homo sapiens) (UniProt Q13627); test: Inhibition of DYRK1A expressed in bacteria using [gamma32-P]ATP at 25 uM
[4] = test system: Leucine-rich repeat serine/threonine-protein kinase 2 (Homo sapiens), Q5S007 [G2019S]; test: Inhibition of LRRK2 G2019S mutant expressed in mouse SN4741 cells assessed as reduction in hydrogen peroxide-induced neurotoxicity at 10 uM by measuring cell survival after 48 hrs by crystal violet assay relative to control; type: cell-based
[5] = molecular target: Leucine-rich repeat serine/threonine-protein kinase 2 (Homo sapiens) (UniProt Q5S007); test: Inhibition of wild type LRRK2 expressed in mouse SN4741 cells assessed as reduction in hydrogen peroxide-induced neurotoxicity at 10 uM by measuring cell survival after 48 hrs by crystal violet assay relative to control; type: cell-based
[6] = Neurotoxicity in rat primary cortical neurons assessed as cell survival at 10 uM after 24 hrs by MTT assay; type: toxicity, cell-based, Cerebral cortex neuron; conditions: read-out: Activity
[7] = Neurotoxicity in rat primary cortical neurons assessed as cell survival at 100 uM after 24 hrs by MTT assay; type: toxicity, cell-based; conditions: cerebral cortex neuron

Leucine-rich repeat serine/threonine-protein kinase 2 (Homo sapiens), Q5S007 [G2019S], sequence (Q5S007 whole entry G2019S): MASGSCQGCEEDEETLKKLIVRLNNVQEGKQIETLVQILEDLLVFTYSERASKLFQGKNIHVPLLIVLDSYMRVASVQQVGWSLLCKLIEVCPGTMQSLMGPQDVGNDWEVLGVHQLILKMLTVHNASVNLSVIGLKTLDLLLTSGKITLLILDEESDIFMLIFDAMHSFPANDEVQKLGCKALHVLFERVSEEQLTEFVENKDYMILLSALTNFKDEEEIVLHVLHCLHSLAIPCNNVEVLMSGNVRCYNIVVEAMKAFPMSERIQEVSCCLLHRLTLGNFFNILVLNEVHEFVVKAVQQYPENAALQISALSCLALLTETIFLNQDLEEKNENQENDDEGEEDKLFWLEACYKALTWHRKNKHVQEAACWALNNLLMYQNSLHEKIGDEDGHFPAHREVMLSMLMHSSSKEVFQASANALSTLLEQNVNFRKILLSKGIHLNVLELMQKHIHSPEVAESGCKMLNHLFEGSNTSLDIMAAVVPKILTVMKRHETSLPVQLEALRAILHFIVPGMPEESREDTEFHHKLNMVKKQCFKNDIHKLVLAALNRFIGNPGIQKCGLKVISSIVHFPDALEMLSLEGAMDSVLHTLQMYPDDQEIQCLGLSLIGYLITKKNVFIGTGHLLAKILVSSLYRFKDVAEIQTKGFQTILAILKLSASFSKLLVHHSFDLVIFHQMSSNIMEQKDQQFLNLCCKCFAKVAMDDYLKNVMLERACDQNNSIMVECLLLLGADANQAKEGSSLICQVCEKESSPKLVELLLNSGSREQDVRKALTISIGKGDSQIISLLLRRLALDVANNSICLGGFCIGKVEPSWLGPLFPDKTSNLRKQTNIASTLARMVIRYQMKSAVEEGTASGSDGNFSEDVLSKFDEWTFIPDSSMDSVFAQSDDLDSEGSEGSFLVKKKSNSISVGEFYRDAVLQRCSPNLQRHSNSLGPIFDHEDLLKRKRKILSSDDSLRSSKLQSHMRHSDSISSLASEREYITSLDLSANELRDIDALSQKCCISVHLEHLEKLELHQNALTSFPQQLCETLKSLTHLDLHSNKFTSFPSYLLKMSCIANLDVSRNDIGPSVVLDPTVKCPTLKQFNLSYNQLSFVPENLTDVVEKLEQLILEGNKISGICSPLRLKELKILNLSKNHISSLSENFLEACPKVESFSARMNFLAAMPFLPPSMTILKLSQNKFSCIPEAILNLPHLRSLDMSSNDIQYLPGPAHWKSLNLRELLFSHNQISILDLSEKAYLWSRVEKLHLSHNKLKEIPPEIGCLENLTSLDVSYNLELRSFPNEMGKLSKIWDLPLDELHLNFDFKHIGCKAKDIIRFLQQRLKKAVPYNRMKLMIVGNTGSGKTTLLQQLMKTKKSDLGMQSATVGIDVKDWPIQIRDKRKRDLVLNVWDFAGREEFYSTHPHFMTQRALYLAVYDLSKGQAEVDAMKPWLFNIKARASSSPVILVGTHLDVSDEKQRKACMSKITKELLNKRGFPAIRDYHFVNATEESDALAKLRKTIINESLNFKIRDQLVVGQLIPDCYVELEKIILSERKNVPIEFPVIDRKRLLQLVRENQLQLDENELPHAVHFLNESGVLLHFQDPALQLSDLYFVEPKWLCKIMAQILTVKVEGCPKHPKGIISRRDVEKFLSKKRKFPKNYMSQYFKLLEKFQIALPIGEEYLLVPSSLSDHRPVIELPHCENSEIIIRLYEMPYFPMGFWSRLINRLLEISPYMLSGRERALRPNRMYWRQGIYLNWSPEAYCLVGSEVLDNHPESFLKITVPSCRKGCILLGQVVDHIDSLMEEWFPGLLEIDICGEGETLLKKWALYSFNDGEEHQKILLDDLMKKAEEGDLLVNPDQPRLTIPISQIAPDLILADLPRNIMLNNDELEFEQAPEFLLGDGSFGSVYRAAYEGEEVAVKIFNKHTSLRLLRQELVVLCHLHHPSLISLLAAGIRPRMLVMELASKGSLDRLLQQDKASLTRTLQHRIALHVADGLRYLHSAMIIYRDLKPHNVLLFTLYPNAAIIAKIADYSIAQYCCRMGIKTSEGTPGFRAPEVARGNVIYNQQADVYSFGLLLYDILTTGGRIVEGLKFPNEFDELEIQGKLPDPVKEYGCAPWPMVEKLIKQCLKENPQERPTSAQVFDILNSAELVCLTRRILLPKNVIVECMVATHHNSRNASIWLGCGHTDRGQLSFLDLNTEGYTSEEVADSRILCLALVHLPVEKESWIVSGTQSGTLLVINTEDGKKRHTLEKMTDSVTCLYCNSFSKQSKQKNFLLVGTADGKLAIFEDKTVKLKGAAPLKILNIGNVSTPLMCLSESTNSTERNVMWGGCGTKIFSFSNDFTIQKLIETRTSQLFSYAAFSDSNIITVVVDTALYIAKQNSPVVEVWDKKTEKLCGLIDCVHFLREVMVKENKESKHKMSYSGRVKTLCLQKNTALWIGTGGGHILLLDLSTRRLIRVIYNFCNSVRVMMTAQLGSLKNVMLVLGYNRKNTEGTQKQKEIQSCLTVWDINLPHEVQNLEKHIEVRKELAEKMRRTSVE
Leucine-rich repeat serine/threonine-protein kinase 2, sequence (Q5S007 whole entry G2019S): as above
Leucine-rich repeat serine/threonine-protein kinase 2 (Homo sapiens), sequence (Q5S007 whole entry): as the sequence (Q5S007 whole entry G2019S) above, with S2019G counted along it

inhibition [1]: Active
SMILES: Oc1ccc(/C=N/Nc2ccc3ccccc3n2)c(O)c1

IC50 [2]: 13.2 µM
inhibition [3]: inactive
inhibition [1]: Active
SMILES: Cc1cc(N/N=C/c2ccc(O)c(O)c2)nc2ccccc12
Activity [4]: 50%
Activity [5]: 50%
viability at 24 h, 10 µM [6]: 85%
Activity [7]: Toxic

inhibition [1]: Active
SMILES: Cc1ccc2cc(C)c(N/N=C/c3ccc(O)cc3)nc2c1

The remaining lines, values behind:

SMILES: COc1cc(/C=N/Nc2nc3cc(C)ccc3cc2C)ccc1O
inhibition [1]: Active

SMILES: COc1ccc(/C=N/Nc2ccc3ccccc3n2)cc1
inhibition [1]: Active
